For the series, the system named is CCRIS mutagenicity, Ames/micronucleus/aberration tests. Description: CCRIS mutagenicity studies.
The mark [1] stands for this setting: Test System: AMES SALMONELLA TYPHIMURIUM, Strain/Indicator: TA98, Metabolic Activation: NONE, Method: PREINCUBATION
The mark [2] stands for this setting: Test System: AMES SALMONELLA TYPHIMURIUM, Strain/Indicator: TA100, Metabolic Activation: NONE, Method: PREINCUBATION

Activity calls are given as the source filed them. How the calls were made is not given here.

With `B#B`, the mutagenic call is “inactive; negative” (Test System: AMES SALMONELLA TYPHIMURIUM, Strain/Indicator: TA98, Metabolic Activation: HAMSTER, LIVER, S-9, AROCLOR 1254 (10%), Method: PREINCUBATION); “active; positive” (Test System: AMES SALMONELLA TYPHIMURIUM, Strain/Indicator: TA98, Metabolic Activation: NONE, Method: GAS EXPOSURE); “inactive; negative” under setting [1]; “active; positive” (Test System: AMES SALMONELLA TYPHIMURIUM, Strain/Indicator: TA98, Metabolic Activation: RAT LIVER S-9, PHENOBARBITAL AND BETA-NAPHTHOFLAVONE, Method: GAS EXPOSURE); “inactive; negative” (Test System: AMES SALMONELLA TYPHIMURIUM, Strain/Indicator: TA98, Metabolic Activation: RAT, LIVER, S-9, AROCLOR 1254 (10%), Method: PREINCUBATION); “active; positive” (Test System: AMES SALMONELLA TYPHIMURIUM, Strain/Indicator: TA98, Metabolic Activation: RAT, LIVER, S-9, PHENOBARBITAL AND 5,6-BENZOFLAVONE, Method: GAS EXPOSURE). Also, the mutagenic call was “inactive; negative” (Test System: AMES SALMONELLA TYPHIMURIUM, Strain/Indicator: TA100, Metabolic Activation: HAMSTER, LIVER, S-9, AROCLOR 1254 (10%), Method: PREINCUBATION); “inactive; negative” under setting [2]; “active; positive” (Test System: AMES SALMONELLA TYPHIMURIUM, Strain/Indicator: TA100, Metabolic Activation: RAT LIVER S-9, PHENOBARBITAL AND BETA-NAPHTHOFLAVONE, Method: GAS EXPOSURE); “inactive; negative” (Test System: AMES SALMONELLA TYPHIMURIUM, Strain/Indicator: TA100, Metabolic Activation: RAT, LIVER, S-9, AROCLOR 1254 (10%), Method: PREINCUBATION); “active; positive” (Test System: AMES SALMONELLA TYPHIMURIUM, Strain/Indicator: TA100, Metabolic Activation: RAT, LIVER, S-9, PHENOBARBITAL AND 5,6-BENZOFLAVONE, Method: GAS EXPOSURE); “inactive; negative” (Test System: AMES SALMONELLA TYPHIMURIUM, Strain/Indicator: TA1535, Metabolic Activation: HAMSTER, LIVER, S-9, AROCLOR 1254 (10%), Method: PREINCUBATION). For the same compound, the mutagenic call is, setting by setting: (Test System: AMES SALMONELLA TYPHIMURIUM, Strain/Indicator: TA1535, Metabolic Activation: NONE, Method: GAS EXPOSURE) “inactive; negative”; (Test System: AMES SALMONELLA TYPHIMURIUM, Strain/Indicator: TA1535, Metabolic Activation: NONE, Method: PREINCUBATION) “inactive; negative”; (Test System: AMES SALMONELLA TYPHIMURIUM, Strain/Indicator: TA1535, Metabolic Activation: RAT LIVER S-9, PHENOBARBITAL AND BETA-NAPHTHOFLAVONE, Method: GAS EXPOSURE) “inactive; negative”; (Test System: AMES SALMONELLA TYPHIMURIUM, Strain/Indicator: TA1535, Metabolic Activation: RAT, LIVER, S-9, AROCLOR 1254 (10%), Method: PREINCUBATION) “inactive; negative”; (Test System: AMES SALMONELLA TYPHIMURIUM, Strain/Indicator: TA1535, Metabolic Activation: RAT, LIVER, S-9, PHENOBARBITAL AND 5,6-BENZOFLAVONE, Method: GAS EXPOSURE) “inactive; negative”; (Test System: AMES SALMONELLA TYPHIMURIUM, Strain/Indicator: TA1537, Metabolic Activation: HAMSTER, LIVER, S-9, AROCLOR 1254 (10%), Method: PREINCUBATION) “inactive; negative”. For the same compound, the mutagenic call is “inactive; negative” (Test System: AMES SALMONELLA TYPHIMURIUM, Strain/Indicator: TA1537, Metabolic Activation: NONE, Method: GAS EXPOSURE); “inactive; negative” (Test System: AMES SALMONELLA TYPHIMURIUM, Strain/Indicator: TA1537, Metabolic Activation: NONE, Method: PREINCUBATION); “inactive; negative” (Test System: AMES SALMONELLA TYPHIMURIUM, Strain/Indicator: TA1537, Metabolic Activation: RAT LIVER S-9, PHENOBARBITAL AND BETA-NAPHTHOFLAVONE, Method: GAS EXPOSURE); “inactive; negative” (Test System: AMES SALMONELLA TYPHIMURIUM, Strain/Indicator: TA1537, Metabolic Activation: RAT, LIVER, S-9, AROCLOR 1254 (10%), Method: PREINCUBATION); “inactive; negative” (Test System: AMES SALMONELLA TYPHIMURIUM, Strain/Indicator: TA1537, Metabolic Activation: RAT, LIVER, S-9, PHENOBARBITAL AND 5,6-BENZOFLAVONE, Method: GAS EXPOSURE); “inactive; negative” (Test System: E. COLI, Strain/Indicator: WP2 UVRA, Metabolic Activation: NONE, Method: GAS EXPOSURE). Further, the mutagenic call was “active; positive” (Test System: E. COLI, Strain/Indicator: WP2 UVRA, Metabolic Activation: RAT, LIVER, S-9, PHENOBARBITAL AND 5,6-BENZOFLAVONE, Method: GAS EXPOSURE); “inactive; negative” (Test System: E.COLI, Strain/Indicator: WP2UVRA, Metabolic Activation: NONE, Method: GAS EXPOSURE); “active; positive” (Test System: E.COLI, Strain/Indicator: WP2UVRA, Metabolic Activation: RAT LIVER S-9, PHENOBARBITAL AND BETA-NAPHTHOFLAVONE, Method: GAS EXPOSURE).
As for `O=C(Cl)c1ccccc1Cl`, the mutagenic call by setting is: under setting [1], “inactive; negative”; (Test System: AMES SALMONELLA TYPHIMURIUM, Strain/Indicator: TA98, Metabolic Activation: RAT LIVER S-9, PCB, Method: PREINCUBATION) “active; positive”; under setting [2], “active; positive”; (Test System: AMES SALMONELLA TYPHIMURIUM, Strain/Indicator: TA100, Metabolic Activation: RAT LIVER S-9, PCB, Method: PREINCUBATION) “active; positive”; (Test System: AMES SALMONELLA TYPHIMURIUM, Strain/Indicator: TA104, Metabolic Activation: NONE, Method: PREINCUBATION) “active; positive”; (Test System: AMES SALMONELLA TYPHIMURIUM, Strain/Indicator: TA104, Metabolic Activation: RAT LIVER S-9 PCB, Method: PREINCUBATION) “active; positive”. Also, the mutagenic call was “inactive; negative” (Test System: E.COLI, Strain/Indicator: WP2 UVRA, Metabolic Activation: NONE, Method: PREINCUBATION) and “active; positive” (Test System: E.COLI, Strain/Indicator: WP2 UVRA, Metabolic Activation: RAT LIVER S-9, PCB, Method: PREINCUBATION).

For the origin of these results see PubChem BioAssay AID1259407 (Chemical Carcinogenesis Research Information System (CCRIS), 2018).
